Measured values reported in patent US7727993B2, “Administering adenosine A2A receptor antagonist to reduce or suppress side effects of parkinson's disease therapy” (Kyowa Hakko Kirin Co., Ltd., priority 2002, dated 2010).
“Also recorded” adds a separate entry of the source.

How the values were obtained:
[1] = tested on: 6-hydroxydopamine lesion rats; experiment: In vivo microdialysis of GABA and glutamate in substantia nigra pars reticulata (Example 3); parameters: species or system rat
Procedure: GABA and glutamate concentrations in an output nucleus of basal ganglia, substantia nigra pars reticulata (SNr), are measured in the 6-hydroxydopamine lesion rats and the chronically L-DOPA-treated rats after 6-hydroxydopamine lesion. Effect of adenosine A2A receptor selective antagonists on GABA and glutamate levels in SNr and dyskinesias was examined. 6-hydroxydopamine (8 μg) was injected into the left medial forebrain bundle in a rat. One week after the lesion, the rats were then tested for contralateral turning by injecting apomorphine (0.1 mg/kg s.c.). Only those animals showing robust contralateral turning were used in subsequent experiments. […] Rats were placed in each test chamber and the microdialysis probe inserted into SNr was attached to a fluid swivel (TCS2-23, Eicom) that allowed free movement (also sustained rotational behavior). Probes were continuously perfused with a modified Ringer's solution (1.2 mmol/L CaCl2, 2.7 mmol/L KCl, 148 mmol/L NaCl, and 0.85 mmol/L MgCl2; pH 7, artificial cerebrospinal fluid solution) at a rate of 2 μL/min via a microinjection pump (CMA/100, Carnegie […] AB). After stabilization of basal level of release for 3-4 h, 4 samples (60 μL each) during 2 h of perfusion were collected using a fraction collector (CMA/140, Carnegie […]). […] The samples were immediately assayed or frozen and stored in a deep freeze (-80° C.) before assays. GABA and glutamate were analyzed using reverse phase high-performance liquid chromatograph with fluorescence detection after pre-column derivatization of the amino acids with orthophthaldialdehyde reagent. Lindroth and Mopper (1979).

[2] = tested on: chronically L-DOPA-treated 6-hydroxydopamine lesion rats; experiment: Abnormal involuntary movements (AIMs) scoring, L-DOPA induced dyskinesia (Example 3); format: in vivo, rat
Procedure: 6-hydroxydopamine (8 μg) was injected into the left medial forebrain bundle in a rat. One week after the lesion, the rats were then tested for contralateral turning by injecting apomorphine (0.1 mg/kg s.c.). Only those animals showing robust contralateral turning were used in subsequent experiments.
During the chronic treatment of L-DOPA, recording of severity scale of AIMs were carried out. In addition, an amplitude-based scale for each limb and axial AIMs was scored during a microdialysis study. Amplitude scores of limb or axial AIMs (each ranging from 0 to 4) was rated based on both the magnitude of paw/limb translocation and of the visible involvement of distal versus proximal muscle groups or on the lateral deviation (or torsion) of an animal's neck and trunk from the longitudinal axis of its body, respectively.

MPTP cynomologus monkeys = experiment: Chronic L-DOPA alone or with KW-6002 in drug-naive MPTP parkinsonian monkeys (Example 4); format: in vivo; settings: L-DOPA alone group versus L-DOPA plus KW-6002 group; week 3 and 4; FIG. 8
Procedure: ANIMALS: 8 (eight) female drug-naïve cynomologus monkeys weighing between 3 and 5 kg were used. They were rendered parkinsonian by subcutaneous infusion of MPTP (0.5 mg daily) until development of an obvious parkinsonian Syndrome (akinesia, hunched posture and tremor associated with a disability score on our scale of 6 or more). The cumulative dose necessary was variable: from 3.5 to 23.5 mg. The animals were allowed to recover during at least one month except an animal who had to be treated earlier because of marked akinesia. They were scored at least once daily. The disability score remained stable throughout that period. […] The drug was administered orally with a special capsule handler. The animals in the KW-6002 group also received this compound (90 mg/kg) by the oral route. The animals were observed daily (from Monday to Friday) in their cages through a one-way screen and video recordings were made of significant events (abnormal behavior—dyskinesias). They were scored on disability scale and eventually dyskinesia rating scale, before and during the effect. The treatment with L-DOPA was continued for one month.

[3] = tested on: MPTP-treated common marmosets; experiment: L-DOPA induced dyskinesia in MPTP-treated marmosets primed with L-DOPA (Example 5); format: in vivo; settings: L-DOPA 2.5 mg/kg oral
Procedure: METHODS: MPTP (Sigma-Aldrich, St. Louis, Mo., USA) was dissolved in physiological saline and administered at a dose of 2.0 mg/kg s.c. daily for 5 days. Then, MPTP 2 mg/kg were further administered approximately 3 weeks.
The dyskinesia of the animals was scored using the rating scale described in Table 4. […] The score was calculated as the L-DOPA pre value. On the next day the animals received vehicle for the vehicle control value. […] Animals were assessed for dyskinesia on days 1, 3, 5, 7, 14, 21 and 28 according to the rating scale.
Abnormal movement such as, orofacial movements, myoclonus and complex stereotypic behaviors (e.g., elaborate checking, obsessive grooming), are exclude from dyskinesia rating.
Remarks According to Dyskinesia. Dystonia (arm, leg and trunk): abnormal sustained posture (ex. leg elevation). Stereotypic reaching (arm) Athetosis (arm and leg): writhing twisting movements. Chorea (arm and leg): abnormal rapid (dance like) movements of limbs. Akathisia: motor restlessness. Dyskinesia score is become higher according to severity of dyskinesia. The maximal score is four points.

[4] = L-DOPA treatment 2 weeks after 6-hydroxydopamine lesion
[5] = L-DOPA treatment 3 weeks after 6-hydroxydopamine lesion

N[C@@H](Cc1ccc(O)c(O)c1)C(=O)O [L-DOPA]
nigral GABA level ([1]; 6-hydroxydopamine lesion rats, change from pre-value, KW-6002 1 mg/kg p.o., FIG. 2A, 3A): facilitation; also recorded: significant increases | nigral glutamate level ([1]; 6-hydroxydopamine lesion rats, change from pre-value, KW-6002 1 mg/kg p.o., FIG. 2B, 3B): facilitation; also recorded: significant increases | basal level of nigral GABA ([1]; L-DOPA treatment 1 week (20 mg/kg orally twice a day) after 6-hydroxydopamine lesion): 19.3 ± 2.3 nmol/L | basal level of nigral glutamate ([1]; L-DOPA treatment 1 week after 6-hydroxydopamine lesion): 147.5 ± 38.1 nmol/L | basal level of nigral GABA [1, 4]: 20.9 ± 6.8 nmol/L | basal level of nigral glutamate [1, 4]: 112.0 ± 47.1 nmol/L | basal level of nigral GABA [1, 5]: 23.6 ± 4.5 nmol/L | basal level of nigral glutamate [1, 5]: 425.4 ± 99.6 nmol/L | nigral GABA levels after administration ([1]; chronically L-DOPA-treated 6-hydroxydopamine lesion rats, FIG. 5A): without effect | nigral glutamate levels after administration ([1]; chronically L-DOPA-treated 6-hydroxydopamine lesion rats, FIG. 5B): increased | basal nigral glutamate concentration during chronic L-DOPA (in words) ([1]; constant until 2 weeks): drastically increase in 3 weeks | basal nigral GABA levels during chronic L-DOPA (in words) ([1]; throughout 1 to 3 weeks): maintained unchanged | average maximum AIM scores ([2]; 2 to 3 weeks chronic L-DOPA, from 10 min to 3 hrs after L-DOPA administration): 9 | AIMs (sum of the amplitude score of limb and axial AIMs) ([2]; chronically L-DOPA-treated rats, FIG. 4): marked AIMs | level of dyskinesia (MPTP cynomologus monkeys): reached a higher level | dyskinesias induced by L-DOPA [3]: mild dyskinesias
